Results published in patent US10391103B2, “Ferroporphyrin solid dispersion and preparation method thereof” (Sinotherapeutics Inc., priority 2013, dated 2019).

Assays:
[1] = rats; cited from earlier work
[2] = Stability test for the solid dispersions (content by HPLC)

Substance: porphyrin iron [API]
- absolute oral bioavailability [1]: 0.93%
- Content, stability study 0 day ([2]; open, 25° C. 60% RH): 100.9%
- Content, stability study 1 day ([2]; open, 25° C. 60% RH): 98.0%
- Content, stability study 3 days ([2]; open, 25° C. 60% RH): 98.7%
- Content, stability study 7 days ([2]; open, 25° C. 60% RH): 100.9%
- Content, stability study 35 days ([2]; open, 25° C. 60% RH): 98.8%
- Content, stability study 0 day ([2]; open, 40° C. 75% RH): 100.9%
- Content, stability study 1 day ([2]; open, 40° C. 75% RH): 99.0%
- Content, stability study 3 days ([2]; open, 40° C. 75% RH): 99.8%
- Content, stability study 7 days ([2]; open, 40° C. 75% RH): 100.8%
- Content, stability study 35 days ([2]; open, 40° C. 75% RH): 100.6%
- Content, stability study 0 day ([2]; sealed, 25° C. 60% RH): 100.9%
- Content, stability study 1 day ([2]; sealed, 25° C. 60% RH): 99.5%
- Content, stability study 3 days ([2]; sealed, 25° C. 60% RH): 102.0%
- Content, stability study 7 days ([2]; sealed, 25° C. 60% RH): 100.5%
- Content, stability study 14 days ([2]; sealed, 25° C. 60% RH): 98.9%
- Content, stability study 35 days ([2]; sealed, 25° C. 60% RH): 102.2%
- Content, stability study 0 day ([2]; sealed, 40° C. 75% RH): 100.9%
- Content, stability study 1 day ([2]; sealed, 40° C. 75% RH): 99.6%
- Content, stability study 3 days ([2]; sealed, 40° C. 75% RH): 102.7%
- Content, stability study 7 days ([2]; sealed, 40° C. 75% RH): 100.8%
- Content, stability study 14 days ([2]; sealed, 40° C. 75% RH): 99.2%
- Content, stability study 35 days ([2]; sealed, 40° C. 75% RH): 102.7%
